Test results from PMC9056950, “Synthesis and biochemical evaluation of cephalosporin analogues equipped with chemical tethers” (RSC Advances, 2020).
Values after ≈ are worked out from the molar mass of the structure shown.

What was measured:
S. aureus (NCTC 6571) = test system: T1, S. aureus (NCTC 6571); parameters: species or system Staphylococcus aureus NCTC 6571; broth microdilution growth, OD600 after 16 h, MIC from GraphPad fit; conditions: 16 h
T1 construct: NCTC 6571
Description: Stock solutions of each compound were prepared in 50% DMSO/water at ×100 the final concentration. In a 96-well plate, 2 μL of the test compounds were added to each well. Each plate included the positive control (750 μg mL^−1 chloramphenicol), the negative control (50% DMSO/water) and media only wells. To each test well was then added 198 μL of the required bacteria stock (OD 0.05). E. coli assays were carried out using LB broth, S. aureus were carried out using tryptic soy broth (TSB). Plates were incubated at 37 °C and the OD600 was measured (Epoch 2 Microplate Spectrophotometer, BioTek) every 30 min over a 17 h period. Tests were carried out in triplicate, the background absorbance was removed using reference wells, and the averages were determined. Dose curves were plotting using the OD600 after 16 h growth vs. compound concentration. MICs were defined as the minimum concentration of compound at which no significant growth was observed after 16 h incubation. MIC values were determined using GraphPad Prism (version 8.3.0). The activity of 1–12 was investigated with growth assays against Staphylococcus aureus (NCTC 6571). S. aureus is a virulent Gram-positive pathogen that can cause a wide range of infections in humans.[29,30] Each compound was tested at 400–6 μM concentrations, with lower concentrations tested as required.

PBP4 = molecular target: T2, PBP4 (Bacillus subtilis, UniProt P32959); assay: biochemical; parameters: gene pbpE; commercial protein (Generon); protein thermal shift assay, melting temperature change of PBP4; conditions: read-out: Average DTm/°C
T2 sequence (P32959 1-451): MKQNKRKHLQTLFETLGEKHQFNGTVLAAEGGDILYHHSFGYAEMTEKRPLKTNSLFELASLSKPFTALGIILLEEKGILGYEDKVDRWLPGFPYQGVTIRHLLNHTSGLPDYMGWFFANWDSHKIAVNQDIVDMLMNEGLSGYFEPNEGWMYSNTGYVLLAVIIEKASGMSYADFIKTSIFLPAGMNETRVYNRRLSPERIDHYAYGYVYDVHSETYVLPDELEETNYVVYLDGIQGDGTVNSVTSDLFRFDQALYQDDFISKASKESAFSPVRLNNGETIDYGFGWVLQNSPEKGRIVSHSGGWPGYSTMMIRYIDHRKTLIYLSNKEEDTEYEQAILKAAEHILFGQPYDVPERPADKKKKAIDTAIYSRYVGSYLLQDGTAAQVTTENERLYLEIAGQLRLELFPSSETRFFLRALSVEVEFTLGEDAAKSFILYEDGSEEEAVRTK
Description: The thermal shift assay was carried out using the Protein Thermal Shift™ assay kit (Applied Biosystems). 3 μM of purified E. coli PBP3 was incubated with the β-lactam analogues at 300 μM concentration in a mixture containing the Protein Thermal Shift™ Dye. The samples were then heated in a StepOnePlus™ Real-Time PCR System from 25 to 95 °C at a rate of 1 °C min^−1. Tests were carried out in triplicate and the averages plotted as the negative first derivative vs. temperature. Reference wells, i.e. solutions consisting only of only PBP3 with dye, PBP3 only, and dye only, were used as controls. Melting temperature (Tm) values were determined with and without each compound, and the change in melting temperature (ΔTm) was obtained, Fig. 2. The thermal shift assay with PBP4 was carried out using the protocol described for PBP3, with the follow deriviatisation: 500 nM of purified Bacillus subtilis PBP4 was incubated with 50 μM of the β-lactam analogues. A thermal shift assay was used to investigate the binding of the cephalexin analogues to the therapeutic target, PBP, in vitro. This assay provides a fast and inexpensive method of detecting a ligand binding to a protein of interest. Briefly, the protein is gradually heated in the presence of a fluorescent dye that binds non-specifically to the hydrophobic surfaces. […]

SMILES: CC1(C)S[C@@H]2[C@H](NC(=O)Cc3ccccc3)C(=O)N2[C@H]1C(=O)O [compound 11, penicillin]
- MIC (best-fit) (S. aureus (NCTC 6571)): 0.0977 µM (≈ 0.0327 µg/mL)
- ΔTm at 50 µM (PBP4): -0.746 °C
